# Assay results from patent US4963553A, “4-[(substituted) alkylcarbonyl]-4,5-dihydro- and -4,5,6,7-tetrahydro-7-[(substituted)phenyl]pyrazolo[1,5-a]pyrimidines” (American Cyanamid Co., priority 1988, dated 1990).
# Counter-ions that a name gives are not always drawn.
# Test system: Brain-Specific Receptors of Rats (3H-benzodiazepine binding)
# Experiment: Inhibition of the binding of 3H-benzodiazepine to brain-specific receptors of rats
# Set-up: species or system rat (Wistar strain, whole cortex)
# Conditions: rat cortex P2 fraction, 3H-diazepam 1.5 nM or 3H-flunitrazepam 1.0 nM
# Description: Another test utilized for the determination of anxiolytic activity is the measurement of the ability of a test compound to inhibit the binding of tritiated benzodiazepines to brain-specific receptors of mammals. A modification of the method described by R. F. Squires, et al., Nature, 266 (21), 732 (Apr., 1977) and H. Mohler, et al., Science, 198, 849 (1977) was employed. […] The test compounds were solubilized in dimethylformamide, acetic acid, ethanol or hydrochloric acid. […] (1) resuspended in twice the original volume in hypotonic 50 mM Tris.HCl (pH 7.4), or (2) resuspended in one-half the original volume in hypotonic 10 mM Tris.HCl (pH 7.4) and frozen (-20° C.) until time. of use. Frozen P2 preparations were thawed and resuspended in four times the original homogenizing volume at time of assay. […] Incubation for 30 minutes proceeded in ice and was terminated by filtration, under vacuum, through glass fiber filters. The filters were washed twice with 5 ml of ice-cold 50 mM Tris.HCl (pH 7.4) and placed in scintillation vials. After drying at 50°-60° C. for 30 minutes, 10 ml of diluent was added and the radioactivity determined in a scintillation counter. Inhibition of binding was calculated by the difference between total binding and binding in the presence of test compound, divided by the total binding, X 100.
row,% Inhibition (3H-benzodiazepine binding) [%],SMILES
1,41,"CN1CCN(CC(=O)N2CC=C(c3cccc(C(F)(F)F)c3)n3ncc(C#N)c32)CC1 [Example 16, 4,5-Dihydro-4-[(4-methyl-1-piperazinyl)acetyl]-7-[3-(trifluoromethyl)phenyl]pyrazolo[1,5-a]pyrimidine-3-carbonitrile]"
2,45,CCOC(=O)N1CCN(CC(=O)N2CC=C(c3cccc(C(F)(F)F)c3)n3ncc(C#N)c32)CC1 [Example 42]
3,24,"N#Cc1cnn2c1N(C(=O)CN1CCN(C(=O)Nc3ccccc3)CC1)CC=C2c1cccc(C(F)(F)F)c1 [Example 99, 4-[2-[3-Cyano-7-[3-(trifluoromethyl)phenyl]pyrazolo-[1,5-a]pyrimidin-4(5H)-yl]-2-oxoethyl]-N-phenyl-1-piperazinecarboxamide]"
4,24,"CCCCCCN(CCCCCC)CC(=O)N1CC=C(c2cccc(C(F)(F)F)c2)n2ncc(C#N)c21 [4-[(Dihexylamino)acetyl]-4,5-dihydro-7-[3-(trifluoromethyl)phenyl]pyrazolo[1,5-a]pyrimidine-3-carbonitrile]"
5,12,"Cl.N#Cc1cnn2c1N(C(=O)CN1CCN(c3ccc(Cl)c(Cl)c3)CC1)CC=C2c1cccc(C(F)(F)F)c1 [Example 82, 4-[[4-(3,4-Dichlorophenyl)-1-piperazinyl]acetyl]-4,5-dihydro-7-[3-(trifluoromethyl)phenyl]pyrazolo[1,5-a]pyrimidine-3-carbonitrile, hydrochloride]"
6,12,"N#Cc1cnn2c1N(C(=O)CN1CCN(C(=O)c3ccco3)CC1)CC=C2c1cccc(C(F)(F)F)c1 [Example 96, 4-[[4-(2-Furanylcarbonyl)-1-piperazinyl]acetyl]-4.5-dihydro-7-[(3-trifluoromethyl)phenyl]pyrazolo[1,5-a]pyrimidine-3-carbonitrile, hydrochloride]"
7,41,"N#Cc1cnn2c1N(C(=O)CN1CCN(CC(=O)N3CCOCC3)CC1)CC=C2c1cccc(C(F)(F)F)c1 [Example 36, 4,5-Dihydro-4-[[4-[2-(4-morpholinyl)-2-oxoethyl]-1-piperazinyl]acetyl]-7-[3-(trifluoromethyl)phenyl]pyrazolo[1,5-a]pyrimidine-3-carbonitrile]"
8,33,"N#Cc1cnn2c1N(C(=O)CN1CCN(CC(=O)N3CCCC3)CC1)CC=C2c1cccc(C(F)(F)F)c1 [Example 38, 4,5-Dihydro-4-[[4-[2-oxo-2-(1-pyrrolidinyl)ethyl]-1-piperazinyl]acetyl]-7-[3-(trifluoromethyl)phenyl]pyrazolo[1,5-a]pyrimidine-3-carbonitrile]"
9,25,"N#Cc1cnn2c1N(C(=O)CN1CCNCC1)CC=C2c1cccc(C(F)(F)F)c1 [Example 98, 4.5-Dihydro-4-(1-piperazinylacetyl)-7-[3-(trifluoromethyl)phenyl]pyrazolo[1,5-a]pyrimidine-3-carbonitrile]"
10,41,CC(C)NC(=O)CN1CCN(CC(=O)N2CC=C(c3cccc(C(F)(F)F)c3)n3ncc(C#N)c32)CC1 [Example 37]
11,14,"N#Cc1cnn2c1N(C(=O)CN1CCN(CCC3CCCCC3)CC1)CC=C2c1cccc(C(F)(F)F)c1 [Example 86, 4-[[4-(2-(Cyclohexylethyl)-1-piperazinyl]acetyl]-4,5-dihydro-7-[3-(trifluoromethyl)phenyl]pyrazolo[1,5-a]pyrimidine-3-carbonitrile, dihydrochloride]"

row,SMILES,% Inhibition (3H-benzodiazepine binding) [%]
1,"Cl.Cl.N#Cc1cnn2c1N(C(=O)CN1CCN(Cc3ccccc3)CC1)CCC2c1cccc(C(F)(F)F)c1 (stereo not shown) [Example 89, 4,5,6,7-Tetrahydro-4-[[4-(phenylmethyl)-1-piperazinyl]acetyl]-7-[3-(trifluoromethyl)phenyl]pyrazolo[1,5-a]pyrimidine-3-carbonitrile, dihydrochloride]",12
2,"N#Cc1cnn2c1N(C(=O)CN1CCN(Cc3ccccc3)CC1)CCC2c1cccc(C(F)(F)F)c1 (stereo not shown) [Example 46, 4,5,6,7-Tetrahydro-4-[[4-(phenylmethyl)-1-piperazinyl]acetyl]-7-[3-(trifluoromethyl)phenyl]pyrazolo[1,5-a]pyrimidine-3-carbonitrile]",14

# Test system: mice (hypoxic environment)
# Experiment: Hypoxic survival test
# Type: in vivo, mouse (Royal Hart)
# Conditions: Mus musculus, ip, 5 min, 100 mg/kg, intraperitoneal, 10% oxygen, 5 minutes; read-out: % Survivors
# Method: The hypoxic survival test is a useful in vivo test for measuring the effectiveness of central nervous system-acting drugs in enhancing survival in an hypoxic environment relative to the known parasympathomimetic agent physostigmine.
# Drugs are tested by intraperitoneal injection of groups of mice 30 minutes prior to placing them in an hypoxic environment and measuring survival. The rationale of this test is that drugs which enhance survival under hypoxic conditions without concomitant depression or sedative side effects, do so by enhancing brain metabolism, i.e., by improving energy supply relative to demand and so preserving normal brain function under conditions of reduced energy metabolism. Considering the dependence of the brain on a constant supply of energy, drugs which have this property may have many far-reaching therapeutic indications, including aiding recovery from stroke and closed head injury and reducing the deleterious effects of age-related central nervous system deficits.
# In the hypoxic survival test, groups of 20 Royal Hart mice (6 weeks of age) were injected intraperitoneally with a test compound in saline at various doses ranging from 1 to 200 mg/kg, 30 minutes prior to placing them in an hypoxic mixture (10% oxygen, 90% […]) and measuring survival after 5 minutes.
# A control group of 20 mice was injected intraperitoneally with saline (0.01 ml/g of body weight) and processed as described above.
# Another group of 20 mice was injected intraperitoneally with 0.125 mg/kg of physostigmine in saline and processed as described above.
row,SMILES,responders at 100 mg/kg [%]
1,"N#Cc1cnn2c1N(C(=O)CN1CCN(Cc3ccccc3)CC1)CCC2c1cccc(C(F)(F)F)c1 (stereo not shown) [Example 46, 4,5,6,7-Tetrahydro-4-[[4-(phenylmethyl)-1-piperazinyl]acetyl]-7-[3-(trifluoromethyl)phenyl]pyrazolo[1,5-a]pyrimidine-3-carbonitrile]",80

# Test system: Spontaneously Hypertensive Rats
# Experiment: Hypotensive activity: mean arterial blood pressure in spontaneously hypertensive rats
# Type: in vivo, rat (Okamoto strain, male)
# Conditions: SHR, gavage, 100 mg/kg or less, two doses 24 h apart, measured at 28 hours; average MABP of rats used 160±1.5 mm
# Method: The novel compounds of the invention are active hypotensive agents at nontoxic doses when administered to mammals. These compounds were tested for hypotensive activity by the method of P. S. Chan and D. W. Poorvin, Clinical and Experimental Hypertension, (6), 817-830 (1979). Male, 16 week old, spontaneously hypertensive rats of the Okamoto strain (Taconic Farms, Germantown, N.Y.) having an average means arterial blood pressure of 160±1.5 mm of mercury are used in the test. A rat is dosed by gavage with a test compound, suspended in 2% pre-boiled starch at a concentration of 50 mg/ml, at a dose of 100 mg/kg of body weight or less, with 0.9% sodium chloride loading at a dose of 25 ml/kg of body weight. A second identical dose of the test compound, without sodium chloride loading is given 24 hours later. At 28 hours after the initial dose the mean arterial blood pressure is measured by the method of Chan and Poorvin vide supra.
row,SMILES,MABP/mmHg (mean arterial blood pressure) [mmHg]
1,"N#Cc1cnn2c1N(C(=O)CN1CCN(C(=O)Nc3ccccc3)CC1)CC=C2c1cccc(C(F)(F)F)c1 [Example 99, 4-[2-[3-Cyano-7-[3-(trifluoromethyl)phenyl]pyrazolo-[1,5-a]pyrimidin-4(5H)-yl]-2-oxoethyl]-N-phenyl-1-piperazinecarboxamide]",125
2,"N#Cc1cnn2c1N(C(=O)CN1CCN(C(c3ccccc3)c3ccc(Cl)cc3)CC1)CC=C2c1cccc(C(F)(F)F)c1 (stereo not shown) [Example 21, 4-[[4-[(4-Chlorophenyl)phenylmethyl]-1-piperazinyl]acetyl]-4,5-dihydro-7-[3-(trifluoromethyl)phenyl]pyrazolo[1,5-a]pyrimidine-3-carbonitrile]",134
3,"N#Cc1cnn2c1N(C(=O)CN1CCN(CC(=O)N3CCOCC3)CC1)CC=C2c1cccc(C(F)(F)F)c1 [Example 36, 4,5-Dihydro-4-[[4-[2-(4-morpholinyl)-2-oxoethyl]-1-piperazinyl]acetyl]-7-[3-(trifluoromethyl)phenyl]pyrazolo[1,5-a]pyrimidine-3-carbonitrile]",129
4,"CC(C)N1CCN(CC(=O)N2CC=C(c3cccc(C(F)(F)F)c3)n3ncc(C#N)c32)CC1 [Example 51, 4,5-Dihydro-4-[[4-(1-methylethyl)-1-piperazinyl]acetyl]-7-[3-(trifluoromethyl)phenyl]pyrazolo[1,5-a]pyrimidine-3-carbonitrile]",139
5,"N#Cc1cnn2c1N(C(=O)CN1CCN(C3CCC3)CC1)CC=C2c1cccc(C(F)(F)F)c1 [Example 52, 4-[(4-Cyclobutyl-1-piperazinyl)acetyl]-4,5-dihydro-7-[3-(trifluoromethyl)phenyl)pyrazolo[1,5-a]pyrimidine-3-carbonitrile]",124
6,CC(C)NC(=O)CN1CCN(CC(=O)N2CC=C(c3cccc(C(F)(F)F)c3)n3ncc(C#N)c32)CC1 [Example 37],129
7,"C=CCN1CCN(CC(=O)N2CC=C(c3cccc(C(F)(F)F)c3)n3ncc(C#N)c32)CC1 [Example 47, 4,5-Dihydro-4-[[4-(2-propenyl)-1-piperazinyl]acetyl]-7-[3-(trifluoromethyl)phenyl]pyrazolo[1,5-a]pyrimidine-3-carbonitrile]",139
8,"N#Cc1cnn2c1N(C(=O)CN1CCN(c3cccc(Cl)c3)CC1)CC=C2c1cccc(C(F)(F)F)c1 [Example 26, 4-[[4-(3-Chlorophenyl)-1-piperazinyl]acetyl]-4,5-dihydro-7-[3-(trifluoromethyl)phenyl]pyrazolo[1,5-a]pyrimidine-3-carbonitrile]",124
9,"N#Cc1cnn2c1N(C(=O)CN1CCN(c3ccc(F)cc3)CC1)CC=C2c1cccc(C(F)(F)F)c1 [Example 31, 4-[[4-(4-Fluorophenyl)-1-piperazinyl]acetyl]-4,5-dihydro-7-[3-(trifluoromethyl)phenyl]pyrazolo[1,5-a]pyrimidine-3-carbonitrile]",130
10,"N#Cc1cnn2c1N(C(=O)CN1CCN(C(c3ccc(F)cc3)c3ccc(F)cc3)CC1)CC=C2c1cccc(C(F)(F)F)c1 [Example 40, 4-[[4-[Bis(4-fluorophenyl)methyl]-1-piperazinyl]acetyl]-4,5-dihydro-7-[3-(trifluoromethyl)phenyl]pyrazolo[1,5-a]pyrimidine-3-carbonitrile]",121

# Same assay, conditions: SHR, gavage, 100 mg/kg or less, two doses 24 h apart, measured at 28 hours; average MABP of rats used 160±1.5 mm; dihydrochloride, 100 mg/kg
row,SMILES,MABP/mmHg (mean arterial blood pressure) [mmHg]
1,"N#Cc1cnn2c1N(C(=O)CN1CCN(Cc3ccccc3)CC1)CC=C2c1cccc(C(F)(F)F)c1 [Example 78, 4,5-Dihydro-4-[[4-(phenylmethyl)-1-piperazinyl]acetyl]-7-[3-(trifluoromethyl)phenyl]pyroazolo[1,5-a]pyrimidine-3-carbonitrile, dihydrochloride]",137
